For assay [1], the target named is T1, βARK (Homo sapiens, UniProt P25098, A211R/K465R/R422H).
T1 sequence (P25098 1-689 A211R/R422H/K465R): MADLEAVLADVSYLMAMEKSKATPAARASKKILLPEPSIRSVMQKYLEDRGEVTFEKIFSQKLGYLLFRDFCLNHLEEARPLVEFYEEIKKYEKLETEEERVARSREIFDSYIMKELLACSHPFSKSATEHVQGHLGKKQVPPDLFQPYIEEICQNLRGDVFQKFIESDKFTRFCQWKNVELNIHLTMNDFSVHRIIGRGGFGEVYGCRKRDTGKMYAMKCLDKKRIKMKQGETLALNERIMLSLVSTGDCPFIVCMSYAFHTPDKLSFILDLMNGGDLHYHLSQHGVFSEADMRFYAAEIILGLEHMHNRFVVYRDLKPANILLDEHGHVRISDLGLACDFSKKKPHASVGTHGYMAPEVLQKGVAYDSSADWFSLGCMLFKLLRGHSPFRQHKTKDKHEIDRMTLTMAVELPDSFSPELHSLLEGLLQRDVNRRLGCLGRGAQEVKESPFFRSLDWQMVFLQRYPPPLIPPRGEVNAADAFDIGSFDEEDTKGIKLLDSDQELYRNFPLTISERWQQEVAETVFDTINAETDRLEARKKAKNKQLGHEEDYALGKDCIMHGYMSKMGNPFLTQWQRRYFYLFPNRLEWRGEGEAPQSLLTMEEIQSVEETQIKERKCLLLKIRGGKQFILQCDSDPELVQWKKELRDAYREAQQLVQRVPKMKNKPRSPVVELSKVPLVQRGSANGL
As to the kind of experiment: βARK inhibition AlphaScreen assay (phosphorylation of biotinylated CCR5 peptide). Format: biochemical. As to conditions: assay validation, read-out: apparent Km (ATP dependence). The source says: (§1) In the βARK inhibition experiment biotinylated hunian CC ehemokine receptor 5, herein abbreviated CCR5 peptide (Seq. ID No. 1) is phosphorylated by the kinase. The phosphorylated serine is recognized by a specific antibody which, in turn, is bound to protein A coupled acceptor beads. The biotinylated N-terminus of the CCR5 peptide is coupled to streptavidin-coated donor heads. Thus, in the absence of inhibitors an AlphaScreen signal is detected that decreases when the enzymatic activity in inhibited. […]
(§2) Percent-inhibition values are calculated as: […]
(In general: Alpha assays give light when donor and acceptor beads are brought close together.)

The target in assay [2] is T2, βARK (Homo sapiens, UniProt P25098).
T2 sequence (P25098 1-689 A211R/R422H/K465R): T1 sequence (P25098 1-689 A211R/R422H/K465R)
The description is as above. Format: biochemical. As to conditions: 0.5 μM βARK, 100 nM CCR5 peptide, 10 μM ATP, 120 min room temperature, read-out: IC50 (dose-response curve).
Source text: as §1, §2

The Km is the substrate concentration at which the rate is half of its maximum. For `Nc1ncnc2c1ncn2[C@@H]1O[C@H](COP(=O)(O)OP(=O)(O)OP(=O)(O)O)[C@@H](O)[C@H]1O` [ATP], the Michaelis constant (Km) at βARK [1] was determined as 4 µM.

One may read the IC50 as the midpoint of a concentration-inhibition curve. Consider heparin, for which the IC50 on βARK [2] worked out at 0.05 µM.

Values taken from patent US7279286B2, “High-throughput-assay with high sensitivity for measuring of the activity of β-adrenergic receptor kinase and for determining the impact of test substances on such activity” (Sanofi-Aventis Deutschland GmbH, priority 2003, dated 2007).
